Data published in ChEMBL document CHEMBL1201862, “PubChem BioAssay data set” (2004).
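Cultured in 96-well plates, cells were exposed to test compound for 48 hours across five concentrations. Here, GI50 denotes the concentration required for 50% inhibition of growth.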 The source made the active and inactive calls. No stated cut-off is given here; in the data, active = GI50 up to about 1.1 µM and inactive = higher.

Key:
Test in all cases: NCI anticancer screen, dose series, 48 h
786-0 = system: 786-0
A498 = system: A498
A549 = system: A549
ACHN = system: ACHN
BT-549 = system: BT-549
CAKI-1 = system: CAKI-1
CCRF-CEM = system: CCRF-CEM
COLO 205 = system: COLO 205
DU-145 = system: DU-145
HCC 2998 = system: HCC 2998
HCT-116 = system: HCT-116
HCT-15 = system: HCT-15
HOP-62 = system: HOP-62
HOP-92 = system: HOP-92
HT-29 = system: HT-29
Hs-578T = system: Hs-578T
IGROV-1 = system: IGROV-1
K562 = system: K562
KM12 = system: KM12
LOX IMVI = system: LOX IMVI
M14 = system: M14
MDA-MB-231 = system: MDA-MB-231
MDA-MB-435 = system: MDA-MB-435
MDA-N = system: MDA-N
MOLT-4 = system: MOLT-4
Malme-3M = system: Malme-3M
NCI-H226 = system: NCI-H226
NCI-H23 = system: NCI-H23
NCI-H460 = system: NCI-H460
NCI/ADR-RES = system: NCI/ADR-RES
OVCAR-3 = system: OVCAR-3
OVCAR-4 = system: OVCAR-4
OVCAR-5 = system: OVCAR-5
OVCAR-8 = system: OVCAR-8
PC-3 = system: PC-3
RPMI-8226 = system: RPMI-8226
RXF 393 = system: RXF 393
SF-268 = system: SF-268
SF-295 = system: SF-295
SK-MEL-28 = system: SK-MEL-28
SK-MEL-2 = system: SK-MEL-2
SK-MEL-5 = system: SK-MEL-5
SK-OV-3 = system: SK-OV-3
SN12C = system: SN12C
SNB-19 = system: SNB-19
SNB-75 = system: SNB-75
SW-620 = system: SW-620
T47D = system: T47D
TK-10 = system: TK-10
U-251 = system: U-251
UACC-257 = system: UACC-257
UACC-62 = system: UACC-62
UO-31 = system: UO-31
EKVX = system: EKVX
MCF7 = system: MCF7
NCI-H522 = system: NCI-H522
SF-539 = system: SF-539
SR = system: SR

SMILES: O=C(Cn1c2ccc(Br)cc2c2nc3ccccc3nc21)N1CCOCC1
- GI50 (786-0): > 100 µM (inactive)
- GI50 (A498): > 100 µM (inactive)
- GI50 (A549): 98.4 µM (inactive)
- GI50 (ACHN): > 100 µM (inactive)
- GI50 (BT-549): > 100 µM (inactive)
- GI50 (CAKI-1): > 100 µM (inactive)
- GI50 (CCRF-CEM): > 100 µM (inactive)
- GI50 (COLO 205): > 100 µM (inactive)
- GI50 (DU-145): > 100 µM (inactive)
- GI50 (HCC 2998): > 100 µM (inactive)
- GI50 (HCT-116): 50.2 µM (inactive)
- GI50 (HCT-15): > 100 µM
- GI50 (HOP-62): > 100 µM (inactive)
- GI50 (HOP-92): 12.8 µM (inactive)
- GI50 (HT-29): > 100 µM (inactive)
- GI50 (Hs-578T): 49.1 µM (inactive)
- GI50 (IGROV-1): 49.7 µM (inactive)
- GI50 (K562): > 100 µM (inactive)
- GI50 (KM12): > 100 µM (inactive)
- GI50 (LOX IMVI): 39.8 µM (inactive)
- GI50 (M14): > 100 µM (inactive)
- GI50 (MDA-MB-231): 63.5 µM (inactive)
- GI50 (MDA-MB-435): > 100 µM (inactive)
- GI50 (MDA-N): > 100 µM (inactive)
- GI50 (MOLT-4): > 100 µM (inactive)
- GI50 (Malme-3M): > 100 µM (inactive)
- GI50 (NCI-H226): > 100 µM (inactive)
- GI50 (NCI-H23): 53 µM (inactive)
- GI50 (NCI-H460): > 100 µM (inactive)
- GI50 (NCI/ADR-RES): 47.9 µM (inactive)
- GI50 (OVCAR-3): > 100 µM (inactive)
- GI50 (OVCAR-4): > 100 µM (inactive)
- GI50 (OVCAR-5): > 100 µM (inactive)
- GI50 (OVCAR-8): 44.3 µM (inactive)
- GI50 (PC-3): 95.7 µM (inactive)
- GI50 (RPMI-8226): > 100 µM (inactive)
- GI50 (RXF 393): 21.3 µM (inactive)
- GI50 (SF-268): > 100 µM (inactive)
- GI50 (SF-295): > 100 µM (inactive)
- GI50 (SK-MEL-28): > 100 µM (inactive)
- GI50 (SK-MEL-2): > 100 µM (inactive)
- GI50 (SK-MEL-5): > 100 µM (inactive)
- GI50 (SK-OV-3): > 100 µM (inactive)
- GI50 (SN12C): > 100 µM (inactive)
- GI50 (SNB-19): > 100 µM (inactive)
- GI50 (SNB-75): 22.1 µM (inactive)
- GI50 (SW-620): > 100 µM (inactive)
- GI50 (T47D): 25.5 µM (inactive)
- GI50 (TK-10): > 100 µM (inactive)
- GI50 (U-251): > 100 µM (inactive)
- GI50 (UACC-257): > 100 µM (inactive)
- GI50 (UACC-62): > 100 µM (inactive)
- GI50 (UO-31): > 100 µM (inactive)

SMILES: [N-]=[N+]=Nc1cc(=O)[nH]c2ccccc12
- GI50 (786-0): > 100 µM (inactive)
- GI50 (A549): > 100 µM (inactive)
- GI50 (ACHN): > 100 µM (inactive)
- GI50 (BT-549): 83.2 µM (inactive)
- GI50 (CAKI-1): > 100 µM (inactive)
- GI50 (CCRF-CEM): > 100 µM (inactive)
- GI50 (COLO 205): > 100 µM (inactive)
- GI50 (EKVX): 4.98 µM (inactive)
- GI50 (HCT-116): > 100 µM (inactive)
- GI50 (HOP-62): > 100 µM (inactive)
- GI50 (HOP-92): 85.3 µM (inactive)
- GI50 (HT-29): > 100 µM (inactive)
- GI50 (Hs-578T): 44.3 µM (inactive)
- GI50 (IGROV-1): 31.9 µM (inactive)
- GI50 (K562): > 100 µM (inactive)
- GI50 (KM12): > 100 µM (inactive)
- GI50 (M14): > 100 µM (inactive)
- GI50 (MCF7): 52 µM (inactive)
- GI50 (MDA-MB-231): > 100 µM (inactive)
- GI50 (MDA-MB-435): > 100 µM (inactive)
- GI50 (MDA-N): > 100 µM (inactive)
- GI50 (MOLT-4): 92.5 µM (inactive)
- GI50 (Malme-3M): 94.6 µM (inactive)
- GI50 (NCI-H226): 45.9 µM (inactive)
- GI50 (NCI-H23): > 100 µM (inactive)
- GI50 (NCI-H522): > 100 µM (inactive)
- GI50 (NCI/ADR-RES): > 100 µM (inactive)
- GI50 (OVCAR-3): 65.2 µM (inactive)
- GI50 (OVCAR-4): > 100 µM (inactive)
- GI50 (OVCAR-5): > 100 µM (inactive)
- GI50 (OVCAR-8): > 100 µM (inactive)
- GI50 (PC-3): 39.4 µM (inactive)
- GI50 (RPMI-8226): 81.8 µM (inactive)
- GI50 (RXF 393): > 100 µM (inactive)
- GI50 (SF-268): > 100 µM (inactive)
- GI50 (SF-295): > 100 µM (inactive)
- GI50 (SF-539): > 100 µM (inactive)
- GI50 (SK-MEL-28): > 100 µM (inactive)
- GI50 (SK-MEL-2): > 100 µM (inactive)
- GI50 (SK-MEL-5): > 100 µM (inactive)
- GI50 (SK-OV-3): 85.3 µM (inactive)
- GI50 (SN12C): > 100 µM (inactive)
- GI50 (SNB-19): > 100 µM (inactive)
- GI50 (SNB-75): 32.3 µM (inactive)
- GI50 (SR): 41.3 µM (inactive)
- GI50 (SW-620): > 100 µM (inactive)
- GI50 (T47D): 64.9 µM (inactive)
- GI50 (TK-10): 53 µM (inactive)
- GI50 (U-251): > 100 µM (inactive)
- GI50 (UACC-257): > 100 µM (inactive)
- GI50 (UACC-62): 44.2 µM (inactive)
- GI50 (UO-31): 31.4 µM (inactive)

SMILES: O=S(=O)(O)c1cccc2c(/N=N/c3c(O)ccc4ccccc34)cccc12
- GI50 (786-0): > 100 µM (inactive)
- GI50 (A498): > 100 µM (inactive)
- GI50 (A549): > 100 µM (inactive)
- GI50 (ACHN): > 100 µM (inactive)
- GI50 (BT-549): > 100 µM (inactive)
- GI50 (CAKI-1): > 100 µM (inactive)
- GI50 (CCRF-CEM): > 100 µM (inactive)
- GI50 (COLO 205): > 100 µM (inactive)
- GI50 (DU-145): > 100 µM (inactive)
- GI50 (EKVX): > 100 µM (inactive)
- GI50 (HCT-116): > 100 µM (inactive)
- GI50 (HCT-15): > 100 µM
- GI50 (HOP-62): > 100 µM (inactive)
- GI50 (HOP-92): > 100 µM (inactive)
- GI50 (HT-29): > 100 µM (inactive)
- GI50 (Hs-578T): > 100 µM (inactive)
- GI50 (IGROV-1): > 100 µM (inactive)
- GI50 (K562): > 100 µM (inactive)
- GI50 (KM12): > 100 µM (inactive)
- GI50 (LOX IMVI): > 100 µM (inactive)
- GI50 (M14): > 100 µM (inactive)
- GI50 (MDA-MB-231): > 100 µM (inactive)
- GI50 (MDA-MB-435): > 100 µM (inactive)
- GI50 (MDA-N): > 100 µM (inactive)
- GI50 (MOLT-4): > 100 µM (inactive)
- GI50 (Malme-3M): > 100 µM (inactive)
- GI50 (NCI-H226): > 100 µM (inactive)
- GI50 (NCI-H23): > 100 µM (inactive)
- GI50 (NCI-H522): > 100 µM (inactive)
- GI50 (NCI/ADR-RES): > 100 µM (inactive)
- GI50 (OVCAR-3): > 100 µM (inactive)
- GI50 (OVCAR-4): > 100 µM (inactive)
- GI50 (OVCAR-5): > 100 µM (inactive)
- GI50 (OVCAR-8): > 100 µM (inactive)
- GI50 (PC-3): > 100 µM (inactive)
- GI50 (RPMI-8226): > 100 µM (inactive)
- GI50 (RXF 393): > 100 µM (inactive)
- GI50 (SF-268): > 100 µM (inactive)
- GI50 (SF-295): > 100 µM (inactive)
- GI50 (SK-MEL-28): > 100 µM (inactive)
- GI50 (SK-MEL-2): > 100 µM (inactive)
- GI50 (SK-MEL-5): 46.2 µM (inactive)
- GI50 (SK-OV-3): > 100 µM (inactive)
- GI50 (SN12C): > 100 µM (inactive)
- GI50 (SNB-19): > 100 µM (inactive)
- GI50 (SNB-75): > 100 µM (inactive)
- GI50 (SR): > 100 µM (inactive)
- GI50 (SW-620): > 100 µM (inactive)
- GI50 (T47D): > 100 µM (inactive)
- GI50 (TK-10): > 100 µM (inactive)
- GI50 (U-251): > 100 µM (inactive)
- GI50 (UACC-257): > 100 µM (inactive)
- GI50 (UACC-62): > 100 µM (inactive)
- GI50 (UO-31): > 100 µM (inactive)
